We go through 18 compounds from ChEMBL document CHEMBL2150953, “Synthesis and antiproliferative activity of helonioside A, 3',4',6'-tri-O-feruloylsucrose, lapathoside C and their analogs” (Eur J Med Chem, 2012).

Holding throughout (assay type): functional, cell-based
In assay [1] the test system is HeLa. In words: Cytotoxicity against human HeLa cells after 48 hrs by MTS assay. (In general: Tetrazolium dyes change colour on reduction, which living cells bring about.)
Assay [2] relates to HeLa. In words: Cytotoxicity against human HeLa cells by MTS assay. The settings on record: TDE = time-dependent effect.
Assay [3] has as its system HeLa. Kind of assay: Cytotoxicity against human HeLa cells after 24 hrs by MTS assay.

SMILES strings stand for the structures.

As a reminder, the IC50 is the point on the concentration scale where inhibition reaches its midpoint. As for `COc1cc(/C=C/C(=O)OC[C@H]2O[C@]3(COC(C)(C)O[C@H]4[C@H](O[C@@H]5COC(C)(C)O[C@H]5[C@@H]4O)O3)[C@@H](O)[C@@H]2O)ccc1OC(C)=O`, the IC50 in assay [1] is over 100 µM.
Same read-out and setting: then `COc1cc(/C=C/C(=O)OC[C@H]2O[C@H](O[C@]3(CO)O[C@H](COC(=O)/C=C/c4ccc(OC(C)=O)cc4)[C@@H](O)[C@@H]3OC(=O)/C=C/c3ccc(OC(C)=O)cc3)[C@H](O)[C@@H](O)[C@@H]2O)ccc1OC(C)=O`, with over 100 µM; and `COc1cc(/C=C/C(=O)OC[C@H]2O[C@]3(COC(C)(C)O[C@H]4[C@H](O[C@@H]5COC(C)(C)O[C@H]5[C@@H]4OC(=O)/C=C/c4ccc(OC(C)=O)c(OC)c4)O3)[C@@H](OC(=O)/C=C/c3ccc(OC(C)=O)c(OC)c3)[C@@H]2OC(=O)/C=C/c2ccc(OC(C)=O)c(OC)c2)ccc1OC(C)=O`, with 3.22 µM; and `COc1cc(/C=C/C(=O)OC[C@H]2O[C@@](CO)(O[C@H]3O[C@H](CO)[C@@H](O)[C@H](O)[C@H]3O)[C@@H](OC(=O)/C=C/c3ccc(O)c(OC)c3)[C@@H]2O)ccc1O` [HELONIOSIDE A], with over 100 µM.
For `COc1cc(/C=C/C(=O)OC[C@H]2O[C@]3(COC(C)(C)O[C@H]4[C@H](O[C@@H]5COC(C)(C)O[C@H]5[C@@H]4O)O3)[C@@H](OC(=O)/C=C/c3ccc(O)c(OC)c3)[C@@H]2OC(=O)/C=C/c2ccc(O)c(OC)c2)ccc1O`, it took 4.2 µM to reach half-maximal inhibition in assay [1] (IC50).
The same measure, in the same setting: then `COc1cc(/C=C/C(=O)OC[C@H]2O[C@@](CO)(O[C@H]3O[C@H](CO)[C@@H](O)[C@H](O)[C@H]3O)[C@@H](OC(=O)/C=C/c3ccc(OC(C)=O)c(OC)c3)[C@@H]2OC(=O)/C=C/c2ccc(OC(C)=O)c(OC)c2)ccc1OC(C)=O`, with 1.7 µM.
As for `COc1cc(/C=C/C(=O)OC[C@H]2O[C@@](CO)(O[C@H]3O[C@H](CO)[C@@H](O)[C@H](OC(=O)/C=C/c4ccc(O)c(OC)c4)[C@H]3O)[C@@H](OC(=O)/C=C/c3ccc(O)c(OC)c3)[C@@H]2OC(=O)/C=C/c2ccc(O)c(OC)c2)ccc1O`, in assay [2], the Activity result is “tde”. Moreover, the values for the 50% inhibitory concentration (IC50) in assay [1] and in assay [3] were 1.62 µM and 7.9 µM, respectively.
On the same counts, the results for `COc1cc(/C=C/C(=O)OC[C@H]2O[C@@](CO)(O[C@H]3O[C@H](CO)[C@@H](O)[C@H](O)[C@H]3O)[C@@H](OC(=O)/C=C/c3ccc(O)c(OC)c3)[C@@H]2OC(=O)/C=C/c2ccc(O)c(OC)c2)ccc1O` are “tde”, 22.4 µM and 55.1 µM.
The compound `COc1cc(/C=C/C(=O)OC[C@H]2O[C@@](CO)(O[C@H]3O[C@H](CO)[C@@H](O)[C@H](O)[C@H]3O)[C@@H](OC(=O)/C=C/c3ccc(OC(C)=O)c(OC)c3)[C@@H]2O)ccc1OC(C)=O` had a half-maximal inhibitory concentration (IC50) in assay [1] of over 100 µM.
In turn, `COc1cc(/C=C/C(=O)OC[C@H]2O[C@H](O[C@]3(CO)O[C@H](COC(=O)/C=C/c4ccc(O)cc4)[C@@H](O)[C@@H]3OC(=O)/C=C/c3ccc(O)cc3)[C@H](O)[C@@H](OC(=O)/C=C/c3ccc(O)cc3)[C@@H]2O)ccc1O` yielded a 50% inhibitory concentration (IC50) in assay [1] of 3.12 µM.
With `CC[C@@]1(O)C(=O)OCc2c1cc1n(c2=O)Cc2cc3ccccc3nc2-1` [CAMPTOTHECIN], it took 0.4 µM to reach half-maximal inhibition in assay [1] (IC50).
The same measure, in the same setting: then `O=C(/C=C/c1ccc(O)cc1)OC[C@H]1O[C@@](CO)(O[C@H]2O[C@H](COC(=O)/C=C/c3ccc(O)cc3)[C@@H](O)[C@H](OC(=O)/C=C/c3ccc(O)cc3)[C@H]2O)[C@@H](OC(=O)/C=C/c2ccc(O)cc2)[C@@H]1O`, with 1.7 µM.
Take `COc1cc(/C=C/C(=O)OC[C@H]2O[C@]3(COC(C)(C)O[C@H]4[C@H](O[C@@H]5COC(C)(C)O[C@H]5[C@@H]4O)O3)[C@@H](OC(=O)/C=C/c3ccc(OC(C)=O)c(OC)c3)[C@@H]2O)ccc1OC(C)=O`: the Activity entry in assay [2] was “tde”. The IC50 worked out at 6.01 µM in assay [1] and 27.9 µM in assay [3].
`COc1cc(/C=C/C(=O)OC[C@H]2O[C@H](O[C@]3(CO)O[C@H](COC(=O)/C=C/c4ccc(O)cc4)[C@@H](O)[C@@H]3OC(=O)/C=C/c3ccc(O)cc3)[C@H](O)[C@@H](OC(=O)/C=C/c3ccc(O)c(OC)c3)[C@@H]2O)ccc1O`: the IC50 in assay [1] was found to be 1.67 µM.
Take `COc1cc(/C=C/C(=O)OC[C@H]2O[C@H](O[C@]3(CO)O[C@H](COC(=O)/C=C/c4ccc(OC(C)=O)cc4)[C@@H](O)[C@@H]3OC(=O)/C=C/c3ccc(OC(C)=O)cc3)[C@H](O)[C@@H](OC(=O)/C=C/c3ccc(OC(C)=O)c(OC)c3)[C@@H]2O)ccc1OC(C)=O`: in assay [1], the IC50 came out at 3.14 µM.
Consider `CC(=O)Oc1ccc(/C=C/C(=O)OC[C@H]2O[C@@](CO)(O[C@H]3O[C@H](COC(=O)/C=C/c4ccc(OC(C)=O)cc4)[C@@H](O)[C@H](OC(=O)/C=C/c4ccc(OC(C)=O)cc4)[C@H]3O)[C@@H](OC(=O)/C=C/c3ccc(OC(C)=O)cc3)[C@@H]2O)cc1`, for which it took 1.86 µM to reach half-maximal inhibition in assay [1] (IC50).
Still for that read-out and setting: then `COc1cc(/C=C/C(=O)OC[C@H]2O[C@H](O[C@]3(CO)O[C@H](COC(=O)/C=C/c4ccc(O)cc4)[C@@H](O)[C@@H]3OC(=O)/C=C/c3ccc(O)cc3)[C@H](O)[C@@H](O)[C@@H]2O)ccc1O` [LAPATHOSIDE C], with 12.6 µM.
As for `COc1cc(/C=C/C(=O)OC[C@H]2O[C@]3(COC(C)(C)O[C@H]4[C@H](O[C@@H]5COC(C)(C)O[C@H]5[C@@H]4O)O3)[C@@H](OC(=O)/C=C/c3ccc(OC(C)=O)c(OC)c3)[C@@H]2OC(=O)/C=C/c2ccc(OC(C)=O)c(OC)c2)ccc1OC(C)=O`, 0.16 µM corresponded to half-maximal inhibition in assay [1] (IC50).
